Test results: patent publication US8198311B2, “Modulators of glucocorticoid receptor, AP-1, and/or NF-κB activity and use thereof” (Bristol-Myers Squibb Company, priority 2006, dated 2012)
Read-outs that look alike come from different tables or passages of the source.

Tests used:
[1] = biological target: T1, human glucocorticoid receptor (Homo sapiens, UniProt P04150); test: Glucocorticoid Receptor Binding Assay (I), fluorescence polarization competitor kit (Fluormone GS Red); details: purified human recombinant full-length GR
T1 construct: purified human recombinant full-length glucocorticoid receptor (2 nM); purchased Invitrogen Part # 2893
T1 sequence (P04150 1-777): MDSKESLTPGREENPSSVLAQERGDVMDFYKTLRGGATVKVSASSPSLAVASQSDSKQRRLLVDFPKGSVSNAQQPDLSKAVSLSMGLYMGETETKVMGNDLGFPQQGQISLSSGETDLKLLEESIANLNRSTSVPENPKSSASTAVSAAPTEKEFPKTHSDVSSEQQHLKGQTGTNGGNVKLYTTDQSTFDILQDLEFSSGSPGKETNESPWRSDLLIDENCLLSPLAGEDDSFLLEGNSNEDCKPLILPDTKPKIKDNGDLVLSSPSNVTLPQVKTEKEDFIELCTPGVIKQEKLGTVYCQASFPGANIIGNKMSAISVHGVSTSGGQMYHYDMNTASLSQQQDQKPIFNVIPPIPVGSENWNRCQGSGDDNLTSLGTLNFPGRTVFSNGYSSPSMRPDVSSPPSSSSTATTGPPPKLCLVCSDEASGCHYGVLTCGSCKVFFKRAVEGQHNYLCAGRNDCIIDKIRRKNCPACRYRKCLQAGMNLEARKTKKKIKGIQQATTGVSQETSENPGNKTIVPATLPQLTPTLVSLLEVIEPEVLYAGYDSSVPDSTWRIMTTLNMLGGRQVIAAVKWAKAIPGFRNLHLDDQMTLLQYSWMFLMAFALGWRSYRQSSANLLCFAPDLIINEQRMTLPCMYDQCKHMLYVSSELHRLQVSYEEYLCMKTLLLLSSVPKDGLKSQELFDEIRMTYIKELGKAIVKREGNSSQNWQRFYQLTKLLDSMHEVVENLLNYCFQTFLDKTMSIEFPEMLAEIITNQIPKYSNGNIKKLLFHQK
How it was run: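 Fluorescence polarization competition: full-length recombinant human GR (2 nM) incubated with 1 nM Fluormone GS Red plus test compound (8.5E-05 to 5 μM) for 2 h at room temperature in the dark before FP read-out.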

[2] = test system: AP-1 induced transcriptional activity; test: Cellular Transrepressional Assay (AP-1 luciferase reporter in A549 cells, PMA-activated); assay type: cell-based; details: pAP-1-Luc, 10 ng/ml PMA, read-out: AP-1 (EC50, nM) (Cellular Transrepression Assay)
How it was run: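 A549 cells stably carrying a 7×AP-1-luciferase reporter, stimulated with 10 ng/ml PMA with or without compound (0.1 nM-40 μM) for 7 h. Luciferase luminescence read 10 min after reagent addition; repression is percentage decrease of PMA-alone signal, EC50 by curve fitting.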

[3] = biological target: T2, human full-length glucocorticoid receptor (Homo sapiens, UniProt P04150); test: Glucocorticoid Receptor Binding Assay (II), fluorescence polarization competitor kit (Fluormone GS1); details: cell lysate with recombinant human full-length GR
T2 construct: recombinantly expressed human full-length glucocorticoid receptor; purchased PanVera Co., Madison, Wis; P2816
T2 sequence (P04150 1-777): T1 sequence (P04150 1-777)
Procedure: In order to measure the binding of compounds on the glucocorticoid receptor a commercially available kit was used (Glucocorticoid receptor competitor assay kit, PanVera Co., Madison, Wis., P2816). Briefly, a cell lysate containing recombinantly expressed human full-length glucocorticoid receptor was mixed with a fluorescently labeled glucocorticoid (1 nM Fluormone GS1) in the presence or absence of test compound. After one hour at room temperature, the fluorescence polarization (FP) of the samples were measured. […] Test molecules were analyzed in the concentration range from 2.4 nM to 40 microMolar.

| Ki [1] | EC50 ([2]; Homo sapiens, A549, 7 h) | Ki [3] | EC50 ([2]; 7 hours) | Structure (SMILES) |
| --- | --- | --- | --- | --- |
| 53 nM | > 10000 nM | 26 nM |  | CC(O)C(C)(C)C(c1ccccc1)c1ccc2c(cnn2-c2ccc(F)cc2)c1 (mixture of isomers) [Example 119, 4-(1-(4-Fluorophenyl)-1H-indazol-5-yl)-3,3-dimethyl-4-phenylbutan-2-ol] |
| 8.5 nM | > 10000 nM | 27 nM |  | CC(C)CC(c1ccc2c(cnn2-c2ccc(F)cc2)c1)C(C)(C)CNC(=O)N1CCCC(C)(C)C1 (stereo not shown) [Example 30, N-(3-(1-(4-fluorophenyl)-1H-indazol-5-yl)-2,2,5-trimethylhexyl)-3,3-dimethylpiperidine-1-carboxamide] |
| 2.5 nM | 86 nM | 8 nM |  | CC(C)CC(c1ccc2c(cnn2-c2ccc(F)cc2)c1)C(C)(C)CNC(=O)NC(C)(C)CO (stereo not shown) [Example 29, 1-(3-(1-(4-fluorophenyl)-1H-indazol-5-yl)-2,2,5-trimethylhexyl)-3-(1-hydroxy-2-methylpropan-2-yl)urea] |
| 4.2 nM | 21 nM | 4.9 nM |  | CC(C)CC(c1ccc2c(cnn2-c2ccc(F)cc2)c1)C(C)(C)CNC(=O)NC(C)(C)C (stereo not shown) [Example 28, 1-tert-butyl-3-(3-(1-(4-fluorophenyl)-1H-indazol-5-yl)-2,2,5-trimethylhexyl)urea] |
| 3.1 nM | 965 nM | 8.6 nM |  | CC(C)CC(c1ccc2c(cnn2-c2ccc(F)cc2)c1)C(C)(C)CNC(=O)NC1CC1 (stereo not shown) [Example 26, 1-cyclopropyl-3-(3-(1-(4-fluorophenyl)-1H-indazol-5-yl)-2,2,5-trimethylhexyl)urea] |
| 1.1 nM | 129 nM | 7.1 nM |  | CC(C)CC(c1ccc2c(cnn2-c2ccc(F)cc2)c1)C(C)(C)CNC(=O)NC(C)C (stereo not shown) [Example 34, 1-(3-(1-(4-fluorophenyl)-1H-indazol-5-yl)-2,2,5-trimethylhexyl)-3-isopropylurea] |
| 28 nM | 394 nM | 19 nM |  | CC(C)CC(c1ccc2c(cnn2-c2ccc(F)cc2)c1)C(C)(C)CNC(=O)N(C)C(C)(C)C (stereo not shown) [Example 31, 1-tert-butyl-3-(3-(1-(4-fluorophenyl)-1H-indazol-5-yl)-2,2,5-trimethylhexyl)-1-methylurea] |
| 8.3 nM | 29 nM | 5.6 nM |  | CC(C)(C)NC(=O)NCC(C)(C)[C@@H](c1ccccc1)c1ccc2c(cnn2-c2ccc(F)cc2)c1 [Example 9, (S)-1-tert-butyl-3-(3-(1-(4-fluorophenyl)-1H-indazol-5-yl)-2,2-dimethyl-3-phenylpropyl)urea] |
| 41 nM | 234 nM | 24 nM |  | CC(C)CC(c1ccc2c(cnn2-c2ccc(F)cc2)c1)C(C)(C)CNC(=O)OCC(F)(F)F (stereo not shown) [Example 60, 2,2,2-trifluoroethyl 3-(1-(4-fluorophenyl)-1H-indazol-5-yl)-2,2,5-trimethylhexylcarbamate] |
|  | 679 nM | 17 nM |  | CC(=O)NCC(C)(C)[C@H](c1ccccc1)c1ccc2c(cnn2-c2ccc(F)cc2)c1 [Example 22, (R)-N-(3-(1-(4-fluorophenyl)-1H-indazol-5-yl)-2,2-dimethyl-3-phenylpropyl)acetamide] |
|  | 5960 nM | 62 nM |  | COC(=O)C(=O)NCC(C)(C)[C@H](c1ccccc1)c1ccc2c(cnn2-c2ccc(F)cc2)c1 [Example 23, (R)-methyl 2-(3-(1-(4-fluorophenyl)-1H-indazol-5-yl)-2,2-dimethyl-3-phenylpropylamino)-2-oxoacetate] |
|  | 139 nM | 6.1 nM |  | CC(C)S(=O)(=O)NCC(C)(C)[C@@H](c1ccccc1)c1ccc2c(cnn2-c2ccc(F)cc2)c1 [Example 7, (S)-N-(3-(1-(4-fluorophenyl)-1H-indazol-5-yl)-2,2-dimethyl-3-phenylpropyl)propane-2-sulfonamide] |
|  |  | 8.8 nM | 106 nM | CC(C)CC(c1ccc2c(cnn2-c2ccc(F)cc2)c1)C(C)(C)CNC(=O)NCC(F)(F)F (single isomer, unassigned) [Example 58B, 1-(3-(1-(4-fluorophenyl)-1H-indazol-5-yl)-2,2,5-trimethylhexyl)-3-(2,2,2-trifluoroethyl)urea] |
|  | 61 nM | 7.4 nM |  | CC(C)(CNC(=O)C(F)(F)F)[C@H](c1ccccc1)c1ccc2c(cnn2-c2ccc(F)cc2)c1 [(R)-16, (R)-2,2,2-trifluoro-N-(3-(1-(4-fluorophenyl)-1H-indazol-5-yl)-2,2-dimethyl-3-phenylpropyl)acetamide] |
|  | > 10000 nM | 59 nM |  | CC(C)CC(c1ccc2c(cnn2-c2ccc(F)cc2)c1)C(C)(C)CNS(=O)(=O)CC(F)(F)F (single isomer, unassigned) [Example 57A, 2,2,2-trifluoro-N-(3-(1-(4-fluorophenyl)-1H-indazol-5-yl)-2,2,5-trimethylhexyl)-ethanesulfonamide] |
|  | > 10000 nM | 43 nM |  | O=S(=O)(CC(F)(F)F)NCC1CC1(c1ccccc1)c1ccc2c(cnn2-c2ccc(F)cc2)c1 (stereo not shown) [Example 89, 2,2,2-trifluoro-N-((2-(1-(4-fluorophenyl)-1H-indazol-5-yl)-2-phenylcyclopropyl)methyl)ethanesulfonamide] |
|  | 371 nM | 9.6 nM |  | CC(C)CC(c1ccc2c(cnn2-c2ccc(F)cc2)c1)C(C)(C)CNC(N)=O (stereo not shown) [Example 61, 1-(3-(1-(4-fluorophenyl)-1H-indazol-5-yl)-2,2,5-trimethylhexyl)urea] |
|  | 240 nM | 12 nM |  | O=C(CC(F)(F)F)NCCC(c1ccccc1)c1ccc2c(cnn2-c2ccc(F)cc2)c1 (stereo not shown) [Example 111, 3,3,3-Trifluoro-N-(3-(1-(4-fluorophenyl)-1H-indazol-5-yl)-3-phenylpropyl)propanamide] |
|  | 29 nM | 16 nM |  | CCS(=O)(=O)NCC(C)(C)[C@@H](c1ccccc1)c1ccc2c(cnn2-c2ccc(F)cc2)c1 [Example 11, (S)-N-(3-(1-(4-fluorophenyl)-1H-indazol-5-yl)-2,2-dimethyl-3-phenylpropyl)ethanesulfonamide] |
|  | > 10000 nM | 75 nM |  | CC(C)(C(O)Cc1ccccc1)C(c1ccccc1)c1ccc2c(cnn2-c2ccc(F)cc2)c1 (stereo not shown) [Example 124, 4-(1-(4-fluorophenyl)-1H-indazol-5-yl)-3,3-dimethyl-1,4-diphenylbutan-2-ol] |
|  | > 10000 nM | 8.2 nM |  | CC(C)CC(c1ccc2c(cnn2-c2ccc(F)cc2)c1)C(C)(C)CNC(=O)C(F)(F)F (stereo not shown) [Example 25, 2,2,2-trifluoro-N-(3-(1-(4-fluorophenyl)-1H-indazol-5-yl)-2,2,5-trimethylhexyl)acetamide] |
|  | > 10000 nM | 21 nM |  | O=S(=O)(CC(F)(F)F)NCCC(c1ccccc1)c1ccc2c(cnn2-c2ccc(F)cc2)c1 (stereo not shown) [Example 110, 2,2,2-Trifluoro-N-(3-(1-(4-fluorophenyl)-1H-indazol-5-yl)-3-phenylpropyl)ethanesulfonamide] |
|  | 5870 nM | 7.8 nM |  | CC(C)(C(=O)c1cccs1)C(c1ccccc1)c1ccc2c(cnn2-c2ccc(F)cc2)c1 (stereo not shown) [Example 127] |
|  | 3850 nM | 69 nM |  | CC(C)(C(O)c1ccccc1)C(c1ccccc1)c1ccc2c(cnn2-c2ccc(F)cc2)c1 (stereo not shown) [Example 121, 3-(1-(4-fluorophenyl)-1H-indazol-5-yl)-2,2-dimethyl-1,3-diphenylprop an-1-ol] |
|  | > 10000 nM | 547 nM |  | CC(C)(CNS(=O)(=O)CC(F)(F)F)C(c1ccccc1)c1ccc2[nH]ncc2c1 (stereo in doubt) [(R)-83, (S)-N-(3-(1H-indazol-5-yl)-2,2-dimethyl-3-phenylpropyl)-2,2,2-trifluoroethanesulfonamide] |
|  | 202 nM | 26 nM |  | CC(C)(C(c1ccccc1)c1ccc2c(cnn2-c2ccc(F)cc2)c1)C(O)(c1ccccc1)C(F)(F)F (stereo not shown) [Example 129, 1,1,1-Trifluoro-4-(1-(4-fluorophenyl)-1H-indazol-5-yl)-3,3-dimethyl-2,4-diphenylbutan-2-ol] |
